Tested on: adenine nucleotide translocase (ANT)
Assay: Binding of solubilized heart IMM proteins to immobilized phenylarsine oxide (Western blot of ANT)
Set-up: species or system beef and pig
Details: heart mitochondria treated with 10 μM CAT prior to IMM isolation and solubilization
Protocol: Centrifugation steps in this process were carried out using a benchtop Eppendorf 5415R centrifuge at 4°C. Mitochondria were washed in ISB and centrifuged at 12 000 g for 5 min before re-suspension in ISB containing protease inhibitors (4 μg/ml each of antipan, pepstatin A and leupeptin plus 0.5 mM benzamidine and 0.5 mM PMSF). Mitochondria were incubated with digitonin (0.12 mg/mg of mitochondrial protein) at 4°C for 15 min on a rotary mixer, and the resulting mitoplasts collected by centrifugation at 9000 g for 10 min before resuspension in ISB containing protease inhibitors and PEG ether W1 (Sigma P7516, formerly known as Lubrol) at 0.16 mg/mg of mitochondrial protein. […]
An immobilized PAO matrix was synthesized by coupling 4-aminophenylarsine oxide to Affi-gel 10 (Bio-Rad Laboratories 153-6099) as described previously. The resin was washed twice in 10 volumes of PAO column buffer (PCB: 150 mM Na2SO4, 50 mM HEPES and 1 mM EGTA, pH 7.2) containing 0.5% (v/v) Triton X-100 and then resuspended to give a 50% (v/v) slurry ready for use. […] Samples were analysed by SDS/PAGE and Western blotting or analysed by Orbitrap MS in the University of Bristol Proteomics Facility. […] The integrated optical density for each band was calculated as the product of the ‘area’ and ‘mean grey value’ with subtraction of a background signal obtained for an equivalent adjacent area lacking any band. […]

Structure (SMILES): C=C1[C@@H]2CC[C@H]3[C@]4(C)C[C@H](O[C@@H]5O[C@H](CO)[C@@H](OS(=O)(=O)O)[C@H](OS(=O)(=O)O)[C@H]5OC(=O)CC(C)C)CC(C(=O)O)(C(=O)O)[C@H]4CC[C@]3(C2)[C@H]1O [CAT, carboxyatractyloside]
- ANT binding to the PAO column: totally prevented

From PMC4845862, “Quantification of active mitochondrial permeability transition pores using GNX-4975 inhibitor titrations provides insights into molecular identity” (Biochemical Journal, 2016)
